Laboratory results taken from patent publication US10570129B2 (Zoetis Services LLC, priority 2015, dated 2020).

Assays:
Haemonchus contortus L3 = experiment: microbe, parasite or virus in culture; format: cell-based; details: Haemonchus contortus, 96 h, read-out: HcL3 Minimal Effective Concentration (MEC)
D. immitis microfilariae = experiment: Dirofilaria immitis, microfilariae (DiMF) in vitro motility assay; format: cell-based; details: Dirofilaria immitis, 72 h, read-out: DiMF minimally effective dose (MEC)
[1] = tested on: Trichostrongylus colubriformis; experiment: Jird efficacy model; format: in vivo; details: Trichostrongylus colubriformis, sc, 96 h, read-out: Jird % (percentage efficacy)

| SMILES | minimal effective concentration (Haemonchus contortus L3) | minimal effective concentration (D. immitis microfilariae) | inhibition in vivo at 10 mg/kg [1] |
| --- | --- | --- | --- |
| N#Cc1ccc2c3c(n(C(=O)NCc4ccnc(Cl)c4)c2c1)CCN(C/C=C/c1ccc(F)c(F)c1F)C3 [Example 13, (E)-N-((2-chloropyridin-4-yl)methyl)-7-cyano-2-(3-(2,3,4-trifluorophenyl)allyl)-1,2,3,4-tetrahydro-5H-pyrido[4,3-b]indole-5-carboxamide] | 1.8 µM | 10 µM | 100% |
| N#Cc1ccc2c3c(n(C(=O)NCc4ccnc(Cl)c4)c2c1)CCN(C/C=C/c1cc(F)c(F)c(F)c1)C3 [Example 29, (E)-N-((2-chloropyridin-4-yl)methyl)-7-cyano-2-(3-(3,4,5-trifluorophenyl)allyl)-1,2,3,4-tetrahydro-5H-pyrido[4,3-b]indole-5-carboxamide] | 0.7 µM | 1.8 µM | 99% |
| N#Cc1ccc2c3c(n(C(=O)NCc4ccnc(Cl)c4)c2c1)CCN(C/C=C/c1cc(F)cc(F)c1)C3 [Example 30, (E)-N-((2-chloropyridin-4-yl)methyl)-7-cyano-2-(3-(3,5-difluorophenyl)allyl)-1,2,3,4-tetrahydro-5H-pyrido[4,3-b]indole-5-carboxamide] | 0.5 µM | 10 µM | 100% |
| N#Cc1ccc2c3c(n(C(=O)NCc4ccnc(Cl)c4)c2c1)CCN(C/C=C/c1cccc(F)c1F)C3 [Example 32, (E)-N-((2-chloropyridin-4-yl)methyl)-7-cyano-2-(3-(2,3-difluorophenyl)allyl)-1,2,3,4-tetrahydro-5H-pyrido[4,3-b]indole-5-carboxamide] | 1.8 µM | 18.2 µM | 100% |
| N#Cc1ccc2c3c(n(C(=O)NCc4ccnc(Cl)c4)c2c1)CCN(C/C=C/c1ccc(Cl)c(Cl)c1)C3 [Example 35, (E)-N-((2-chloropyridin-4-yl)methyl)-7-cyano-2-(3-(3,4-dichlorophenyl)allyl)-1,2,3,4-tetrahydro-5H-pyrido[4,3-b]indole-5-carboxamide] | 3.3 µM | 33 µM | 100% |
| N#Cc1ccc2c3c(n(C(=O)NCc4ccnc(Cl)c4)c2c1)CCN(C/C=C/c1ccc(F)cc1)C3 [Example 36, (E)-N-((2-chloropyridin-4-yl)methyl)-7-cyano-2-(3-(4-fluorophenyl)allyl)-1,2,3,4-tetrahydro-5H-pyrido[4,3-b]indole-5-carboxamide] | 5.7 µM | 3.3 µM | 100% |
| N#Cc1ccc2c3c(n(C(=O)NCc4ccnc(Br)c4)c2c1)CCN(C/C=C/c1ccc(Cl)c(F)c1)C3 [Example 41, (E)-N-((2-bromopyridin-4-yl)methyl)-2-(3-(4-chloro-3-fluorophenyl)allyl)-7-cyano-1,2,3,4-tetrahydro-5H-pyrido[4,3-b]indole-5-carboxamide] | 0.3 µM | 5.7 µM | 100% |
| N#Cc1ccc2c(c1)c1c(n2C(=O)NCc2ccnc(Cl)c2)CCN(C/C=C/c2ccc(F)cc2F)C1 [Example 88, (E)-N-((2-chloropyridin-4-yl)methyl)-8-cyano-2-(3-(2,4-difluorophenyl)allyl)-1,2,3,4-tetrahydro-5H-pyrido[4,3-b]indole-5-carboxamide] | 0.1 µM | 3.3 µM | 99% |
| N#Cc1ccc2c(c1)c1c(n2C(=O)NCc2ccnc(F)c2)CCN(C/C=C/c2cc(F)c(Cl)c(F)c2)C1 [Example 99, (E)-2-(3-(4-chloro-3,5-difluorophenyl)allyl)-8-cyano-N-((2-fluoropyridin-4-yl)methyl)-1,2,3,4-tetrahydro-5H-pyrido[4,3-b]indole-5-carboxamide] | 0.1 µM | 10 µM | 100% |
| N#Cc1ccc2c(c1)c1c(n2C(=O)NCc2ccnc(F)c2)CCN(C/C=C/c2ccc(Br)cc2F)C1 [Example 102, (E)-2-(3-(4-bromo-2-fluorophenyl)allyl)-8-cyano-N-((2-fluoropyridin-4-yl)methyl)-1,2,3,4-tetrahydro-5H-pyrido[4,3-b]indole-5-carboxamide] | 0.3 µM | 3.3 µM | 97% |
| N#Cc1ccc2c(c1)c1c(n2C(=O)NCc2ccnc(F)c2)CCN(C/C=C/c2cc(Br)ccc2F)C1 [Example 108, (E)-2-(3-(5-bromo-2-fluorophenyl)allyl)-8-cyano-N-((2-fluoropyridin-4-yl)methyl)-1,2,3,4-tetrahydro-5H-pyrido[4,3-b]indole-5-carboxamide] | 2.4 µM | 3.2 µM | 100% |
| N#Cc1ccc2c(c1)c1c(n2C(=O)NCc2ccnc(F)c2)CCN(C/C=C/c2ccc(F)c(Br)c2)C1 [Example 109, (E)-2-(3-(3-bromo-4-fluorophenyl)allyl)-8-cyano-N-((2-fluoropyridin-4-yl)methyl)-1,2,3,4-tetrahydro-5H-pyrido[4,3-b]indole-5-carboxamide] | 1.22 µM | 18.2 µM | 99% |
| N#Cc1ccc2c(c1)c1c(n2C(=O)NCc2ccnc(F)c2)CCN(C/C=C/c2ccc(F)cc2F)C1 [Example 115, (E)-8-cyano-2-(3-(2,4-difluorophenyl)allyl)-N-((2-fluoropyridin-4-yl)methyl)-1,2,3,4-tetrahydro-5H-pyrido[4,3-b]indole-5-carboxamide] | 0.1 µM | 3.3 µM | 100% |
| N#Cc1ccc2c(c1)c1c(n2C(=O)NCc2ccnc(F)c2)CCN(C/C=C/c2ccc(Cl)c(Cl)c2)C1 [Example 122, (E)-8-cyano-2-(3-(3,4-dichlorophenyl)allyl)-N-((2-fluoropyridin-4-yl)methyl)-1,2,3,4-tetrahydro-5H-pyrido[4,3-b]indole-5-carboxamide] | 1 µM | 18.2 µM | 100% |
| N#Cc1ccc2c(c1)c1c(n2C(=O)NCc2ccnc(F)c2)CCN(C/C=C/c2ccc(F)cc2)C1 [Example 123, (E)-8-cyano-2-(3-(4-fluorophenyl)allyl)-N-((2-fluoropyridin-4-yl)methyl)-1,2,3,4-tetrahydro-5H-pyrido[4,3-b]indole-5-carboxamide] | 0.3 µM | 10 µM | 100% |
| N#Cc1ccc2c(c1)c1c(n2C(=O)NCc2ccnc(C(F)(F)F)c2)CCN(C/C=C/c2ccc(Cl)cc2F)C1 [Example 128, (E)-2-(3-(4-chloro-2-fluorophenyl)allyl)-8-cyano-N-((2-(trifluoromethyl)pyridin-4-yl)methyl)-1,2,3,4-tetrahydro-5H-pyrido[4,3-b]indole-5-carboxamide] | 0.1 µM | 0.7 µM | 100% |
| O=C(NCc1ccnc(Cl)c1)n1c2c(c3ccc(C(F)(F)F)cc31)CN(C/C=C/c1ccc(Cl)c(F)c1)CC2 [Example 152, (E)-2-(3-(4-chloro-3-fluorophenyl)allyl)-N-((2-chloropyridin-4-yl)methyl)-7-(trifluoromethyl)-1,2,3,4-tetrahydro-5H-pyrido[4,3-b]indole-5-carboxamide] | 1 µM | 3.3 µM | 99% |
| N#Cc1ccc(/C=C/CN2CCc3c(c4ccc(C(F)(F)F)cc4n3C(=O)NCc3ccnc(Cl)c3)C2)cc1 [Example 155, (E)-N-((2-chloropyridin-4-yl)methyl)-2-(3-(4-cyanophenyl)allyl)-7-(trifluoromethyl)-1,2,3,4-tetrahydro-5H-pyrido[4,3-b]indole-5-carboxamide] | 1 µM | 22.6 µM | 100% |
| O=C(NCc1ccnc(Cl)c1)n1c2c(c3ccc(C(F)(F)F)cc31)CN(C/C=C/c1ccc(Cl)cc1)CC2 [Example 156, (E)-2-(3-(4-chlorophenyl)allyl)-N-((2-chloropyridin-4-yl)methyl)-7-(trifluoromethyl)-1,2,3,4-tetrahydro-5H-pyrido[4,3-b]indole-5-carboxamide] | 0.5 µM | 33 µM | 99% |
| O=C(NCc1ccnc(F)c1)n1c2c(c3ccc(C(F)(F)F)cc31)CN(C/C=C/c1ccc(Cl)c(F)c1)CC2 [Example 163, (E)-2-(3-(4-chloro-3-fluorophenyl)allyl)-N-((2-fluoropyridin-4-yl)methyl)-7-(trifluoromethyl)-1,2,3,4-tetrahydro-5H-pyrido[4,3-b]indole-5-carboxamide] | 1.8 µM | 5.7 µM | 100% |
| N#Cc1ccc(/C=C/CN2CCc3c(c4ccc(C(F)(F)F)cc4n3C(=O)NCc3ccnc(F)c3)C2)cc1 [Example 164, (E)-2-(3-(4-cyanophenyl)allyl)-N-((2-fluoropyridin-4-yl)methyl)-7-(trifluoromethyl)-1,2,3,4-tetrahydro-5H-pyrido[4,3-b]indole-5-carboxamide] | 3.3 µM | 10 µM | 100% |
| O=C(NCc1ccnc(F)c1)n1c2c(c3ccc(C(F)(F)F)cc31)CN(C/C=C/c1ccc(Cl)cc1)CC2 [Example 165, (E)-2-(3-(4-chlorophenyl)allyl)-N-((2-fluoropyridin-4-yl)methyl)-7-(trifluoromethyl)-1,2,3,4-tetrahydro-5H-pyrido[4,3-b]indole-5-carboxamide] | 3.3 µM | 3.3 µM | 100% |
| N#Cc1ccc(/C=C/CN2CCc3c(c4cc(Br)ccc4n3C(=O)NCc3ccnc(Cl)c3)C2)cc1 [Example 184, (E)-8-bromo-N-((2-chloropyridin-4-yl)methyl)-2-(3-(4-cyanophenyl)allyl)-1,2,3,4-tetrahydro-5H-pyrido[4,3-b]indole-5-carboxamide] | 1 µM | 57.4 µM | 100% |
